Row | SMILES | melting point [°C]
1 | NC(=O)CNC(=O)c1cc(-c2ccc(F)c3cc(Cc4cc(F)cc(Cl)c4)sc23)ccc1F | 148 to 150
2 | Cc1nc(-n2ccc(OCc3ccccc3)cc2=O)sc1C(=O)NCc1ccccc1 | 219 to 220
3 | Cc1c2c(c(-c3ccc4c(c3)OCO4)c3c4c(ccc13)OCO4)CNC2=O | 292 to 293
4 | COc1cccc2c(=O)n3nc(C(=O)n4ccnc4)cc3[nH]c12 | 295 to 300
5 | CCOCc1nc2c(N)nc3ccccc3c2n1Cc1cc(-c2ccccc2)no1 | 215 to 216
6 | COC(=O)CCCC(=O)N(C)CCc1c[nH]c2ccccc12 | 101 to 102
7 | CC1(C)CN=C2C(=O)c3cc(S(=O)(=O)N4CCc5ccccc54)ccc3N2C1 | 170 to 171
8 | COC(=O)CCn1ccc2cc([N+](=O)[O-])ccc21 | 97 to 99
9 | Nc1ccc(Oc2ccc3c(c2)OCC(=O)N3)cc1 | 201 to 202
10 | Cc1ccc(C(=O)NCC2CCN(C[C@H]3COc4ccc(Cl)cc4O3)CC2)c(N)n1 | 160 to 163
11 | CCCC1Sc2nncn2N=C1c1ccc2c(c1)NC(=O)CO2 (stereo not given) | 235 to 237
12 | COc1ccc(C2=Nc3ccc(N4CCCC4)cc3C(=O)C2)cc1 | 312 to 313
13 | COc1ccc(COC(=O)n2c(S(=O)Cc3ccc(C)cn3)nc3cscc32)cc1 (stereo not given) | 119 to 120
14 | Cc1cc(CC(=O)O)cc2c1NC(C(F)(F)F)CC2 (stereo not given) | 135 to 136
15 | CN1CCC(OC2c3cccc(Br)c3CCn3cc(-c4ccccc4)nc32)CC1 (stereo not given) | 83
16 | COc1ccc(CCCc2cnc(N)nc2N)cc1 | 151 to 154
17 | CCC(=O)c1cnc2c(c1)oc(=O)n2C | 110 to 112
18 | CC(=O)N(C)c1ccc(OCc2nc3ccccc3s2)cc1 | 119 to 120
19 | N#CC1=C(NN)C(=O)NC1=O | > 350
20 | CCOc1cccc(C)c1S(=O)(=O)NC(=O)c1noc(C)n1 | 168
21 | O=C(Nc1ccccc1F)Nc1cc(Cl)ccc1C(=O)O | 195 to 197
22 | O=C(CNc1ccc(Cl)cc1)c1cc(O)c(O)c([N+](=O)[O-])c1 | 177 to 178
23 | O=C(Nc1ccc2c(c1)CCN(Cc1ccccc1)C2)c1ccccc1-c1ccc(C(F)(F)F)cc1 | 230 to 232
24 | CCOC(=O)C1(C(=O)OCC)CCC2(CC1)c1cc(OC)c(OC)cc1CCN2C(=O)OCc1ccccc1 | 101 to 102
25 | CCN(CC)C(=O)C(C)Cc1cc(-c2ccccc2)cc2ccccc12 (stereo not given) | 70

Row | SMILES | melting point [°C]
26 | OC(CCN1CC=C(c2ccccc2)CC1)c1ccc(Cl)cc1 (stereo not given) | 141
27 | CC(=O)N[C@@H](Cc1ccccc1)C[C@H](O)[C@H](Cc1ccccc1)N(Cc1ccccc1)Cc1ccccc1 | 84 to 86
28 | CC(=O)c1ccc(-c2ccccc2)cc1O | 90 to 92
29 | COC(=S)NN=C1C(=O)Nc2ccc(C3=NNC(=O)SC3C)cc21 (stereo not given) | 245
30 | Cn1c(-c2ccc3ccccc3c2)nnc1S(C)=O (stereo not given) | 224 to 226
31 | OCCc1ccc(CCO)cc1 | 83 to 84
32 | COc1cc(F)c(C(=O)CCCCCBr)cc1OC | 81 to 83
33 | CC(=O)NC1CSc2ccccc2NC1=O (stereo not given) | 283 to 286
34 | Nc1ccc(OC(F)(F)F)cc1 | 63.5
35 | CCCCCC1=CCC(c2cc(F)c(C#N)c(F)c2)C=C1 (stereo not given) | 59
36 | COC(=O)Cc1sc(F)c(N=c2sc(=O)n3n2CCCC3)c1Cl | 99 to 101
37 | CN(C)S(=O)(=O)c1cc2c(c(C(=O)O)c1)OC(C)(C)C2 | 211 to 212
38 | CN1C[C@@H]2C[C@H]1CN2C(=O)N1CCC(c2[nH]nc3c2C(=O)c2c(NC(=O)NN4CCOCC4)cccc2-3)CC1 | 224 to 225
39 | O=C1c2ccccc2C(=O)N1CCCc1cccnc1 | 88 to 89
40 | CCCc1oc(-c2ccccc2)nc1COc1ccc(COc2ccccc2CC(=O)O)cc1 | 129 to 130
41 | CC1(C)CCC2(C(=O)O)CCC3(C)C(=CCC4C5(C)Cc6c(n[nH]c6N)C(C)(C)C5CCC43C)C2C1 (stereo not given) | 263 to 266
42 | Cc1ccc2nc(N3CCN(c4ncccc4Cl)CC3)[nH]c2c1 | 258 to 259
43 | C=C[C@]1(C)C(=O)N(C)[C@H](C(C)(C)C)N1C(=O)c1ccccc1 | 117 to 118
44 | O=C(c1ccc(-c2ccn(C(=O)C3CC3)n2)cc1)N1Cc2cccn2Cc2ccccc21 | 197 to 199
45 | Nc1ccn(-c2ccc(Br)cc2)n1 | 122 to 123
46 | C=CCCC(C#N)(C#N)Cc1ccc(OC(F)(F)Br)cc1 | 50.2
47 | O=C(O)c1cn(-c2ccc(F)cc2F)c2cc(Cl)c(F)cc2c1=O | 90 to 92
48 | CCCCc1nc2cccc(C(=O)O)c2n1Cc1ccc(-c2cncnc2-c2nnn[nH]2)cc1 | 209 to 212
49 | CNC(=O)N(OC)c1ccc(Oc2ccc3sncc3c2)c(C(F)(F)F)c1 | 197
50 | Fc1ccc(F)c(CN2CCNc3ncc(-c4cnc(N5CCOCC5)nc4)cc32)c1Cl | 250 to 251

Row | SMILES | melting point [°C]
51 | N#Cc1c(Cl)c2cc(Cl)cnc2[nH]c1=O | 247
52 | CC1(C)C=C(c2c[nH]c(-c3ccc(F)cc3)c2-c2ccncc2)CC(C)(C)N1 | 258 to 259
53 | CCOC(=O)CCCOc1cccc(Oc2nc(OC)cc(OC)n2)c1C=NNc1ccc(Cl)cc1 | 139
54 | Cn1c(=O)c(-c2ccc(Cl)cc2Cl)cc2c3cc(-c4cnco4)ccc3n(C)c21 | 170 to 174
55 | OCc1c(Cl)cc(Cl)cc1C(O)(Cn1ccnc1)c1ccc(Cl)cc1Cl (stereo not given) | 208 to 211
56 | Cc1cc(C(=O)O)ccc1-c1ccc2cc3c(cc2c1)C(C)(C)CCC3(C)C | 248 to 250
57 | COC(=O)C(=Cc1cccc([N+](=O)[O-])c1)C(=O)OC | 78 to 80
58 | O=C1NC(=O)c2c1c(-c1ccccc1)cc1c2c2cc(O)ccc2n1CCN1CCOCC1 | 260 to 262
59 | O=C(Nc1cc([N+](=O)[O-])ccc1F)C(F)(F)F | 112 to 113
60 | CC(C)(C)N1CCN(c2cc3c(cc2F)c(=O)c(C(=O)O)cn3C(C)(C)C)CC1 | > 270
61 | CCCCCCCCCCCc1cc2ccc(C(=O)O)cc2[nH]1 | 156 to 158
62 | COC(=Cc1ccc(-c2cccc(N(C)C(=O)Nc3ccccc3)c2)cc1)C(=O)O | 223
63 | CCCS(=O)(=O)NC(=O)CCc1cc(OC(C)C)nn1Cc1ccc(Cl)cc1Cl | 124 to 126
64 | COc1c(C)c2c(c(O)c1C/C=C(\C)C(O)C(C)(C)C(=O)O)C(=O)OC2 (stereo not given) | 180 to 181
65 | CCONC(=O)c1cc(NC(C)=C2C(=O)OC(=O)C(C(C)=O)=C2O)cc(C(=O)NOCC)c1 | 234 to 235
66 | Cc1ccc(-c2cc(NCCNc3cc(-c4ccc(C)cc4)[nH]n3)n[nH]2)cc1 | 179
67 | COc1cc2nc(N3CCN(C(=O)C=Cc4ccc(Cl)c(Cl)c4)CC3)nc(N)c2cc1OC | 196 to 198
68 | C1=CC2(C3OCCO3)OC1c1ccccc12 (stereo not given) | 48 to 49
69 | N=C(N)c1ccnc(-c2ccc(-c3ccc(-c4cc(C(=N)N)ccn4)s3)s2)c1 | > 300
70 | CC(C)(Oc1ccc(C2CCOCC2)cc1Cl)C(=O)O | 141
71 | Cc1c(Cl)c(Oc2c(Cl)cc(C(F)(F)F)cc2Cl)nn1C(=O)NCCCl | 141 to 143
72 | O=C1CC(c2ccc(F)cc2)c2ccccc21 (stereo not given) | 120 to 121
73 | CC(=O)c1c[nH]c(-c2ccccc2)n1 | 158
74 | CN1CCN(C(=O)Nc2ccc3c(c2)NC(=O)/C3=C\c2ccc[nH]2)C1=O | 267 to 272
75 | CCCCCCCCCC(O)P(=O)(O)O (stereo not given) | 164

Row | SMILES | melting point [°C]
76 | CCOC(=O)CCCN1CCN(C2=Nc3ccccc3Oc3ccc(Cl)cc32)CC1 | 86 to 87
77 | CC(C)(O)[C@@H](N)c1ccc2ccccc2c1 | 77 to 78
78 | COc1cccc2c1nc(C(F)F)n2-c1nc(Nc2cccnc2)nc(N2CCOCC2)n1 | 221 to 223
79 | CCOC(=O)N[C@@H]1CCc2ccccc2[C@H]1Nc1ccccc1CO (relative stereo) | 134 to 135
80 | CC(C)(C)c1cn(Cc2ccccc2)c([C@@H](Cc2c[nH]c3ccccc23)NCc2ccccc2)n1 | 60 to 62
81 | ON=C(Cl)c1ccccc1 | 50 to 51
82 | CCC(C)(CC)CC(=O)C(OC(=C1C(=O)N(C(N)=O)c2cc(Cl)c(F)cc21)c1cccs1)C(=O)O (stereo not given) | 124 to 125
83 | Cc1ccc(-c2nc3ccc(C(=O)O)cn3c2CN(C)C(=O)CC(C)C)cc1 | 227 to 229
84 | CC(=O)c1c(C)c(NC(=O)OCC(Cl)(Cl)Cl)c(C)c2c1OCC2c1ccc(C(C)C)cc1 (stereo not given) | 186 to 189
85 | COCCCN(C(=O)N(CCCl)N=O)C1(O)C(OCC(C)C)OCC(O)C1O (stereo not given) | 84 to 86
86 | [N-]=[N+]=NCC1Cc2cc(I)c3[nH]c(=O)ccc3c2O1 (stereo not given) | 175
87 | CCOC(=O)C1=C(C)NC(C)=C(C(=O)OCC)C1c1c(Cl)cccc1Cl | 134 to 135
88 | CCOC(=O)c1cn(C2CC2)c2cc(-c3cc(C)nc(C)c3)c(F)cc2c1=O | 198 to 200
89 | Cc1nc(N2CCN(Cc3ccccc3)C2=N)sc1C(=O)NCc1ccccc1 | 125 to 126
90 | FC(F)(F)c1ccc(-c2cc(C(F)(F)F)n3ncc(-c4ccncc4)c3n2)cc1C(F)(F)F | 209
91 | COc1ccc(CCNc2nc(C)c(CCO)c(=O)[nH]2)cc1 | 180
92 | COc1ccc(/C=C/C(=O)c2ccccc2C(=O)O)cc1-c1cccs1 | 79 to 81
93 | O=C(Cn1ccnc1)c1cc(Br)cc2ccccc12 | 242 to 244
94 | COC(=O)c1cc(OC)c(-n2cccc2)c(OC)c1 | 145 to 146
95 | Cc1ncsc1C(=O)Nc1ccc(-n2nc(C(F)(F)F)cc2C2CC2)cc1 | 137 to 141
96 | OCCC1c2ccccc2-c2ccccc21 | 97
97 | N=C(N)Nc1nc(CSCCNC=NS(=O)(=O)c2ccc(Br)cc2)cs1 | 142 to 146
98 | COc1cccc(-n2c(N3CCNCC3)c(C(=O)N3CCN(C)CC3)c3ccccc32)c1 | 228 to 230
99 | CCOC(=O)CC(=O)c1cn(C(c2ccccc2)(c2ccccc2)c2ccccc2)cn1 | 136 to 139
100 | CCCCc1cc(Br)c(N=Nc2ccc(N(CCO)CCO)cc2NC(C)=O)c(Br)c1 | 157 to 159
